According to ChEMBL document CHEMBL5365481, “Design, Synthesis, and Activity Evaluation of Novel Dual-Target Inhibitors with Antifungal and Immunoregulatory Properties” (J Med Chem, 2023):
Active and inactive are the calls of the source. The calls are words filed in the database; no cut-off is given here.

system: Candida albicans; experiment: In vivo antifungal activity against Candida albicans ATCC SC5314 infected in BALB/c mouse assessed as increase in body weight at 10 ug, ip for 14 days; type: functional, organism-based; settings: dose 10.0 µg, time 14.0 day

| SMILES | Activity |
| --- | --- |
| CC(C)c1ccc(C(=O)N2CCC(NC(=O)c3nc(-n4ccnc4)c4ccccc4n3)CC2)cc1 | Active |

system: Candida albicans; experiment: In vivo antifungal activity against Candida albicans ATCC SC5314 infected in BALB/c mouse assessed as shrinkage in infected region at 10 ug, ip for 14 days; type: functional, organism-based; settings: dose 10.0 µg, time 14.0 day

| SMILES | Activity |
| --- | --- |
| CC(C)c1ccc(C(=O)N2CCC(NC(=O)c3nc(-n4ccnc4)c4ccccc4n3)CC2)cc1 | Active |

system: Candida albicans; experiment: In vivo antifungal activity against Candida albicans ATCC SC5314 infected in BALB/c mouse assessed as disappearance of nuclei aggregation at 10 ug, ip for 14 days by GMS staining based microscopy; type: functional, organism-based; settings: dose 10.0 µg, time 14.0 day

| SMILES | Activity |
| --- | --- |
| CC(C)c1ccc(C(=O)N2CCC(NC(=O)c3nc(-n4ccnc4)c4ccccc4n3)CC2)cc1 | Active |

system: not listed separately; experiment: Toxicity in BALB/c mouse infected with Candida albicans ATCC SC5314 assessed as morphological changes in liver at 10 ug, ip for 14 days by H and E staining based microscopy; type: organism-based; settings: in vivo, 336 h, dose 10 µg, time 14 day

| SMILES | Activity |
| --- | --- |
| CC(C)c1ccc(C(=O)N2CCC(NC(=O)c3nc(-n4ccnc4)c4ccccc4n3)CC2)cc1 | Non-Toxic |

system: not listed separately; experiment: Toxicity in BALB/c mouse infected with Candida albicans ATCC SC5314 assessed as morphological changes in spleen at 10 ug, ip for 14 days by H and E staining based microscopy; type: organism-based; settings: in vivo, 336 h, dose 10 µg, time 14 day

| SMILES | Activity |
| --- | --- |
| CC(C)c1ccc(C(=O)N2CCC(NC(=O)c3nc(-n4ccnc4)c4ccccc4n3)CC2)cc1 | Non-Toxic |

system: not listed separately; experiment: Toxicity in BALB/c mouse infected with Candida albicans ATCC SC5314 assessed as morphological changes in lung at 10 ug, ip for 14 days by H and E staining based microscopy; type: organism-based; settings: in vivo, 336 h, dose 10 µg, time 14 day

| SMILES | Activity |
| --- | --- |
| CC(C)c1ccc(C(=O)N2CCC(NC(=O)c3nc(-n4ccnc4)c4ccccc4n3)CC2)cc1 | Non-Toxic |

system: not listed separately; experiment: Toxicity in BALB/c mouse infected with Candida albicans ATCC SC5314 assessed as morphological changes in kidney at 10 ug, ip for 14 days by H and E staining based microscopy; type: organism-based; settings: in vivo, 336 h, dose 10 µg, time 14 day

| SMILES | Activity |
| --- | --- |
| CC(C)c1ccc(C(=O)N2CCC(NC(=O)c3nc(-n4ccnc4)c4ccccc4n3)CC2)cc1 | Non-Toxic |

system: not listed separately; experiment: Toxicity in BALB/c mouse infected with Candida albicans ATCC SC5314 assessed as plasma AST level at 10 ug, ip for 14 days; type: organism-based; settings: in vivo, 336 h, dose 10 µg, time 14 day

| SMILES | Activity [IU/L] |
| --- | --- |
| CC(C)c1ccc(C(=O)N2CCC(NC(=O)c3nc(-n4ccnc4)c4ccccc4n3)CC2)cc1 | 66.8 |

system: not listed separately; experiment: Toxicity in BALB/c mouse infected with Candida albicans ATCC SC5314 assessed as plasma ALT level at 10 ug, ip for 14 days; type: organism-based; settings: in vivo, 336 h, dose 10 µg, time 14 day

| SMILES | Activity [IU/L] |
| --- | --- |
| CC(C)c1ccc(C(=O)N2CCC(NC(=O)c3nc(-n4ccnc4)c4ccccc4n3)CC2)cc1 | 30.5 |

system: not listed separately; experiment: Toxicity in BALB/c mouse infected with Candida albicans ATCC SC5314 assessed as plasma BUN level at 10 ug, ip for 14 days; type: organism-based; settings: in vivo, 336 h, dose 10 µg, time 14 day

| SMILES | Activity [mM] |
| --- | --- |
| CC(C)c1ccc(C(=O)N2CCC(NC(=O)c3nc(-n4ccnc4)c4ccccc4n3)CC2)cc1 | 20.2 |

system: Candida albicans; experiment: In vivo antifungal activity against Candida albicans ATCC SC5314 infected in BALB/c mouse assessed as decrease in COX2 expression level at 10 ug, ip for 14 days by Western blot analysis; type: functional, organism-based; settings: dose 10.0 µg, time 14.0 day

| SMILES | Activity |
| --- | --- |
| CC(C)c1ccc(C(=O)N2CCC(NC(=O)c3nc(-n4ccnc4)c4ccccc4n3)CC2)cc1 | Active |

system: Candida albicans; experiment: In vivo antifungal activity against Candida albicans ATCC SC5314 infected in BALB/c mouse assessed as decrease in NLRP3 expression level at 10 ug, ip for 14 days by Western blot analysis; type: functional, organism-based; settings: dose 10.0 µg, time 14.0 day

| SMILES | Activity |
| --- | --- |
| CC(C)c1ccc(C(=O)N2CCC(NC(=O)c3nc(-n4ccnc4)c4ccccc4n3)CC2)cc1 | Active |

system: Candida albicans; experiment: In vivo antifungal activity against Candida albicans ATCC SC5314 infected in BALB/c mouse assessed as decrease in IFN-gamma expression level at 10 ug, ip for 14 days by Western blot analysis; type: functional, organism-based; settings: dose 10.0 µg, time 14.0 day

| SMILES | Activity |
| --- | --- |
| CC(C)c1ccc(C(=O)N2CCC(NC(=O)c3nc(-n4ccnc4)c4ccccc4n3)CC2)cc1 | Active |

system: Candida albicans; experiment: In vivo antifungal activity against Candida albicans ATCC SC5314 infected in BALB/c mouse assessed as decrease in COX2 expression level at 10 ug, ip for 14 days by immunohistochemical analysis; type: functional, organism-based; settings: dose 10.0 µg, time 14.0 day

| SMILES | Activity |
| --- | --- |
| CC(C)c1ccc(C(=O)N2CCC(NC(=O)c3nc(-n4ccnc4)c4ccccc4n3)CC2)cc1 | Active |

system: Candida albicans; experiment: In vivo antifungal activity against Candida albicans ATCC SC5314 infected in BALB/c mouse assessed as decrease in IL-2 expression level at 10 ug, ip for 14 days by immunohistochemical analysis; type: functional, organism-based; settings: dose 10.0 µg, time 14.0 day

| SMILES | Activity |
| --- | --- |
| CC(C)c1ccc(C(=O)N2CCC(NC(=O)c3nc(-n4ccnc4)c4ccccc4n3)CC2)cc1 | Active |

system: Candida albicans; experiment: In vivo antifungal activity against Candida albicans ATCC SC5314 infected in BALB/c mouse assessed as decrease in IFN-gamma expression level at 10 ug, ip for 14 days by immunohistochemical analysis; type: functional, organism-based; settings: dose 10.0 µg, time 14.0 day

| SMILES | Activity |
| --- | --- |
| CC(C)c1ccc(C(=O)N2CCC(NC(=O)c3nc(-n4ccnc4)c4ccccc4n3)CC2)cc1 | Active |

system: Candida albicans; experiment: In vivo antifungal activity against Candida albicans ATCC SC5314 infected in BALB/c mouse assessed as decrease in PD-L1 expression level at 10 ug, ip for 14 days by Western blot analysis; type: functional, organism-based; settings: dose 10.0 µg, time 14.0 day

| SMILES | Activity |
| --- | --- |
| CC(C)c1ccc(C(=O)N2CCC(NC(=O)c3nc(-n4ccnc4)c4ccccc4n3)CC2)cc1 | Active |
